Reference: EP4635500A1, “THERAPEUTIC AGENT FOR BACTERIAL INFECTION” (Sumitomo Pharma Co., Ltd., priority 2022, dated 2024)
Values after ≈ are worked out from the molar mass of the structure shown. Read-outs that look alike come from different tables or passages of the source.

Legend:
Serratia marcescens = assay: MIC, broth microdilution, standard strains and Japanese clinical isolates (Example 5, Table 4); assay type: cell-based
[1] = system: E. coli ATCCBAA-2469 producing NDM-1; assay: Systemic infection lethal mouse model, ED50 (Example 14, Table 32); conditions: 7 days after infection
Procedure: The test strains on the agar medium were suspended in saline and adjusted to a Klett unit of about 200 using a Klett Photoelectric Colorimeter. […] Male ICR mice were inoculated intraperitoneally with 0.2 mL of the bacterial suspension. Two hours after the inoculation, saline or a solution for administering the agent at each concentration was administered subcutaneously to the mice in a single dose. The number of mice that survived from Day 1 to Day 7 after infection was recorded.

[2] = cited from earlier work
[3] = system: Serine-carbapenemase producing strains (N = 19); assay: MIC50/MIC90 for carbapenemase-producing isolates (Example 5, Table 6); assay type: cell-based; design: unit not given here; conditions: Serine-carbapenemase (N = 19): KPC-2 (7), KPC-3 (8), KPC-38 (1), OXA-48 (2), OXA-181 (1)

Molecule | MIC (Serratia marcescens; KUB3169 Serratia marcescens Clinical isolate, carbapenemase genes Unidentified, read-out: MIC) [µg/mL] | MIC (Serratia marcescens; KUB3170 Serratia marcescens Clinical isolate, carbapenemase genes Unidentified) [µg/mL] | MIC (Serratia marcescens; KUB3171 Serratia marcescens Clinical isolate, carbapenemase genes -) [µg/mL] | Survival rate ([1]; Dose 10 mg/kg) [%] | Survival rate ([1]; Dose 30 mg/kg) [%] | Survival rate ([1]; Dose 60 mg/kg) [%] | Survival rate ([1]; Dose 100 mg/kg) [%] | human protein binding rate ([2]; Reference 2) [%] | Cmax ([2]; human, 2 g intravenously for 3 hours every 8 hours, Reference 3) [ng/mL] | MIC50 [3] | MIC90 [3]
C[C@@H](O)[C@H]1C(=O)N2C(C(=O)O)=C(S[C@@H]3CN[C@H](C(=O)N(C)C)C3)[C@H](C)[C@H]12 [MEPM, meropenem] | 2 (≈ 5.22 µM) | 2 (≈ 5.22 µM) | 2 (≈ 5.22 µM) | 10 | 0 | 0 | 80 | 2 | 46000 | – | –
colistin | – | – | – | – | – | – | – | – | – | 0.25 | 2
